Assay results: patent US20240360126A1, “PYRAZOLO[3,4-B]PYRIDINE COMPOUNDS FOR THE TREATMENT OF AUTOIMMUNE DISEASE” (Hoffmann-La Roche Inc., priority 2021, published 2024)

Columns and labels:
[1] = Human microsome stability assay; assay type: in vitro ADME; settings: 1 μM test compound, 0.5 mg/mL liver microsomal protein, 37° C.
Description: The human microsomal stability assay is used for early assessment of metabolic stability of a test compound in human liver microsomes.
Human liver microsomes (Cat. NO.: 452117, Corning, USA; Cat. NO.:H2610, Xenotech, USA) were preincubated with test compound for 10 minutes at 37° C. in 100 mM potassium phosphate buffer, pH 7.4. The reactions were initiated by adding NADPH regenerating system.
The final incubation mixtures contained 1 μM test compound, 0.5 mg/mL liver microsomal protein, 1 mM MgCl2, 1 mM NADP, 1 unit/mL isocitric dehydrogenase and 6 mM isocitric acid in 100 mM potassium phosphate buffer, pH 7.4. After incubation times of 0, 3, 6, 9, 15 and 30 minutes at 37° C., 300 μL of cold acetonitrile (including internal standard) was added to 100 μL incubation mixture to terminate the reaction. Following precipitation and centrifugation, the amount of compound remaining in the samples were determined by LC-MS/MS. Controls of no NADPH regenerating system at zero and 30 minutes were also prepared and analyzed.

TLR9 = biological target: T1, TLR9 (Homo sapiens, UniProt Q9NR96); assay: Human PBMC cell-based assay; design: These cells express TLR7, TLR8, or TLR9, and therefore are natural responders to respective ligand stimulation; endogenous in cells; host or cells: human PBMC from healthy donor whole blood; settings: CpG ODN 2216 at 1 μM, read-out: hPBMC/TLR9 IC50
T1 sequence (Q9NR96 26-1032): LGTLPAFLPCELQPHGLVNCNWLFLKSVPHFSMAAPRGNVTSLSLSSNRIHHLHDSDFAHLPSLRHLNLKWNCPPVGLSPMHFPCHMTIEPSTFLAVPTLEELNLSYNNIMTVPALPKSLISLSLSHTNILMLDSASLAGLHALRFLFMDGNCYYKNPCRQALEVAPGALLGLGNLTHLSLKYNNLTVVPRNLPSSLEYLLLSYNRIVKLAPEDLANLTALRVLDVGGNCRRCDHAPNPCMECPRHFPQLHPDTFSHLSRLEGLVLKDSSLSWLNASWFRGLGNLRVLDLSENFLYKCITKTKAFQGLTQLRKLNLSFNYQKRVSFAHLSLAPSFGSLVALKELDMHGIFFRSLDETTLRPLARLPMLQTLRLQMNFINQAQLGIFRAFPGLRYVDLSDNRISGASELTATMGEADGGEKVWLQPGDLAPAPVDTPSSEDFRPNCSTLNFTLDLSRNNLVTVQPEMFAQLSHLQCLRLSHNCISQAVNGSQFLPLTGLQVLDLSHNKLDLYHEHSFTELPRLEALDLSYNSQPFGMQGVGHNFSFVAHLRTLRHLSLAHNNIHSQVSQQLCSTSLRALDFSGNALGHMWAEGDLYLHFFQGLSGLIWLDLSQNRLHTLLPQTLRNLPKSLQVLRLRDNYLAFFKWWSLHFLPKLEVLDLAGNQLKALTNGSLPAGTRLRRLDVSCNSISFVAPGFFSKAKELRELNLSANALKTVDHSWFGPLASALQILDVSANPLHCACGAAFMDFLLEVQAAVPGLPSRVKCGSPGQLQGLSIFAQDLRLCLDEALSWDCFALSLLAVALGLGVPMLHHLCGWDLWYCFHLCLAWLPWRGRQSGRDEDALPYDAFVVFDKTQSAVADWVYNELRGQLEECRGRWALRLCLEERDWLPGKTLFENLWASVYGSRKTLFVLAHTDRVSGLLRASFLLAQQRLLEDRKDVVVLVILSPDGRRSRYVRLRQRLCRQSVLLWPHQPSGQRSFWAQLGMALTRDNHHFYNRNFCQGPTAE
Description: Unlike the HEK reporter cell lines, human peripheral blood mononuclear cell (PBMC) represents primary human immune cells in blood mainly consisting of lymphocytes, monocytes, and dendritic cells. These cells express TLR7, TLR8, or TLR9, and therefore are natural responders to respective ligand stimulation. Upon activation of these TLRs, PBMCs secrete similar cytokines and chemokines in vitro and in vivo, and therefore the in vitro potency of a TLR7/8/9 antagonist in human PBMC is readily translatable to its pharmacodynamics response in vivo.
Human peripheral blood mononuclear cells (PBMC) were isolated from freshly-drawn lithium-heparinized (Lithium Heparin Plus blood Collection tube, BD Vacutainer®) healthy donor whole blood by density gradient (Ficoll-Paque™ PLUS, GE Healthcare life Sciences). Briefly, […] was diluted with 25 mL PBS (without Ca^2+, Mg^2+) in a 50 mL conical tube with porous barrier (Leucosep tube, Greiner bio-one), where 15.5 mL Ficoll-Paque was under laid after spinning. Tubes were centrifuged for 20 minutes at 800×g (1946 rpm) with the brake in the off position, and PBMC were collected from the buffy coat. Cells were then washed twice in PBS, and red blood cells were lysed by suspension in 2 mL (Red Blood Cell Lysis Buffer, Alfa Aesar) for 5-10 minutes at room temperature. After a final wash in PBS, PBMC were resuspended at a final concentration of 2×10^6 cells/mL in RPMI-1640 media with GlutaMAX™ (Gibco) supplemented with 10% Fetal Bovine Serum (Sigma) and plated at 150 μL/well (3×10^5 cells/well) in tissue culture treated round bottom 96-well plates (Corning Incorporated). Antagonist compounds (compounds of this invention) solubilized and serial diluted in 100% DMSO were added in duplicate to cells to yield a final concentration of 1% DMSO (v/v). PBMC were incubated with antagonist compounds for 30 minutes at 37° C., 5% CO2 before adding various TLR agonist reagents in 48 μL complete media per well as follows (final concentrations indicated): CpG ODN 2216 (InvivoGen) at 1 μM for TLR9, ORN 06/LyoVec (InvivoGen) at […] for TLR8 and R848 (InvivoGen) at 1 μg/mL for TLR7 and TLR8. PBMC were incubated overnight at 37° C. with 5% C02. Cell culture supernatants were collected, and levels of various human cytokines were assessed by Luminex assay (ProcartaPlex™ Multiplex Immunoassay, Invitrogen) or ELISA procedure according to the manufacturer's recommended protocol (eBioscience, ThermoFisher Scientific). Viability of the cells was also checked with Cell Viability Assay (CellTiter Glo® Luminescent Cell Viability Assay, Promega).

Cc1cc(N2CCC(c3cnc(N4CCNCC4)cc3C)[C@H](C)C2)c2cnn(C)c2n1 (single isomer, unassigned) [Example 20, 1,6-dimethyl-4-[cis-3-methyl-4-(4-methyl-6-piperazin-1-yl-3-pyridyl)-1-piperidyl]pyrazolo[3,4-b]pyridine]
Clearance of Human microsome [1]: 9.0 mL/min/kg

Cc1cc(N2CCC(c3cnc(N4CCNCC4)cc3C)[C@H](C)C2)c2cnn(C)c2n1 (single isomer, unassigned) [Example 21, 1,6-dimethyl-4-[trans-3-methyl-4-(4-methyl-6-piperazin-1-yl-3-pyridyl)-1-piperidyl]pyrazolo[3,4-b]pyridine]
Clearance of Human microsome [1]: 7.8 mL/min/kg | IC50 (TLR9): 848 nM

Cc1cc(N2CCC(c3ncc(N4CCNCC4)cc3C)[C@H](C)C2)c2cnn(C)c2n1 (single isomer, unassigned) [Example 25, 1,6-dimethyl-4-[trans-3-methyl-4-(3-methyl-5-piperazin-1-yl-2-pyridyl)-1-piperidyl]pyrazolo[3,4-b]pyridine]
IC50 (TLR9): 320 nM

Cc1cc(N2CCC(c3ccc(N4CCNCC4)cn3)CC2)c2cnn(C)c2n1 [Example 2, 1,6-dimethyl-4-[4-(5-piperazin-1-yl-2-pyridyl)-1-piperidyl]pyrazolo[3,4-b]pyridine]
Clearance of Human microsome [1]: 8.2 mL/min/kg | IC50 (TLR9): 470 nM

Cc1cc(N2CCC(c3cnc(N4CCNCC4)cn3)CC2)c2cnn(C)c2n1 [Example 3, 1,6-dimethyl-4-[4-(5-piperazin-1-ylpyrazin-2-yl)-1-piperidyl]pyrazolo[3,4-b]pyridine]
Clearance of Human microsome [1]: 9.3 mL/min/kg

Cc1cc(N2CCNCC2)cnc1C1CCN(c2ccnc3c2cnn3C)CC1 [Example 5, 1-methyl-4-[4-(3-methyl-5-piperazin-1-yl-2-pyridyl)-1-piperidyl]pyrazolo[3,4-b]pyridine]
Clearance of Human microsome [1]: 9.1 mL/min/kg

Cc1cc(N2CCNCC2)ncc1C1CCN(c2ccnc3c2cnn3C)CC1 [Example 6, 1-methyl-4-[4-(4-methyl-6-piperazin-1-yl-3-pyridyl)-1-piperidyl]pyrazolo[3,4-b]pyridine]
Clearance of Human microsome [1]: 9.3 mL/min/kg | IC50 (TLR9): 617 nM

Cc1cc(N2CCC(c3ncc(N4CCNCC4)cc3C)CC2)c2cnn(C)c2n1 [Example 7, 1,6-dimethyl-4-[4-(3-methyl-5-piperazin-1-yl-2-pyridyl)-1-piperidyl]pyrazolo[3,4-b]pyridine]
Clearance of Human microsome [1]: 6.2 mL/min/kg | IC50 (TLR9): 420 nM

CCc1cc(N2CCNCC2)cnc1C1CCN(c2cc(C)nc3c2cnn3C)CC1 [Example 13, 4-[4-(3-ethyl-5-piperazin-1-yl-2-pyridyl)-1-piperidyl]-1,6-dimethyl-pyrazolo[3,4-b]pyridine]
Clearance of Human microsome [1]: 7.2 mL/min/kg

COc1cc(N2CCNCC2)cnc1C1CCN(c2cc(C)nc3c2cnn3C)CC1 [Example 14, 4-[4-(3-methoxy-5-piperazin-1-yl-2-pyridyl)-1-piperidyl]-1,6-dimethyl-pyrazolo[3,4-b]pyridine]
Clearance of Human microsome [1]: 6.7 mL/min/kg | IC50 (TLR9): 340 nM

CO[C@@H]1CN(c2cnc([C@@H]3CCN(c4cc(C)nc5c4cnn5C)C[C@H]3C)c(C)c2)C[C@H]1N [Example 26, (3R,4R)-1-[6-[(3S,4R)-1-(1,6-dimethylpyrazolo[3,4-b]pyridin-4-yl)-3-methyl-4-piperidyl]-5-methyl-3-pyridyl]-4-methoxy-pyrrolidin-3-amine]
IC50 (TLR9): 330 nM

Cc1cc(N2CC[C@@H](c3ncc(N4CC[C@@H](N)[C@H](F)C4)cc3C)[C@H](C)C2)c2cnn(C)c2n1 [Example 31, (3R,4R)-1-[6-[(3S,4R)-1-(1,6-dimethylpyrazolo[3,4-b]pyridin-4-yl)-3-methyl-4-piperidyl]-5-methyl-3-pyridyl]-3-fluoro-piperidin-4-amine]
IC50 (TLR9): 410 nM

Cc1cc(N2CC[C@@H](c3ccc(N4CCNCC4)cn3)[C@H](C)C2)c2cnn(C)c2n1 [Example 34, 1,6-dimethyl-4-[(3S,4R)-3-methyl-4-(5-piperazin-1-yl-2-pyridyl)-1-piperidyl]pyrazolo[3,4-b]pyridine]
Clearance of Human microsome [1]: 9.8 mL/min/kg

COC[C@H]1CN(c2ccc([C@H]3CCN(c4cc(C)nc5c4cnn5C)C[C@@H]3C)nc2)CCN1 [Example 37, 4-[(3R,4S)-4-[5-[(3R)-3-(methoxymethyl)piperazin-1-yl]-2-pyridyl]-3-methyl-1-piperidyl]-1,6-dimethyl-pyrazolo[3,4-b]pyridine]
Clearance of Human microsome [1]: 6.2 mL/min/kg

Cc1cc(N2CC[C@H](c3ccc(N4CC5(CNCCO5)C4)cn3)[C@@H](C)C2)c2cnn(C)c2n1 [Example 38, 2-[6-[(3R,4S)-1-(1,6-dimethylpyrazolo[3,4-b]pyridin-4-yl)-3-methyl-4-piperidyl]-3-pyridyl]-5-oxa-2,8-diazaspiro[3.5]nonane]
Clearance of Human microsome [1]: 7.8 mL/min/kg

CO[C@H]1CN(c2ccc([C@H]3CCN(c4cc(C)nc5c4cnn5C)C[C@@H]3C)nc2)CC[C@@H]1N [Example 39, (3S,4S)-1-[6-[(3R,4S)-1-(1,6-dimethylpyrazolo[3,4-b]pyridin-4-yl)-3-methyl-4-piperidyl]-3-pyridyl]-3-methoxy-piperidin-4-amine]
Clearance of Human microsome [1]: 6.7 mL/min/kg

Cc1cc(N2CC[C@H](c3ccc(N4CC[C@@H](N)[C@H](F)C4)cn3)[C@@H](C)C2)c2cnn(C)c2n1 [Example 41, (3R,4R)-1-[6-[(3R,4S)-1-(1,6-dimethylpyrazolo[3,4-b]pyridin-4-yl)-3-methyl-4-piperidyl]-3-pyridyl]-3-fluoro-piperidin-4-amine]
Clearance of Human microsome [1]: 7.2 mL/min/kg
